Source: PMC7728372, “Synthesis and Biological Evaluation of Amino Chalcone Derivatives as Antiproliferative Agents” (Molecules, 2020)
Read-outs that look alike come from different tables or passages of the source.

Key:
MGC-803 cells [1] = assay: MTT antiproliferative assay, MGC-803 cells; assay type: cell-based, human; conditions: exposure for 48 h
Protocol: (§1) Cell lines used were cultured in humidified incubator at 37 °C and 5% CO2. The RPMI-1640 medium was supplemented with 10% fetal bovine serum, penicillin (100 U/mL) and streptomycin (0.1 mg/mL).
(§2) Cell lines were seeded into […] and incubated for 24 h. Then cells were treated with different concentrations of compounds. And after another 48 h, MTT reagent (20 μL per well) was added and then incubated at 37 °C for 4 h. Formazan was then dissolved with DMSO. Absorbencies of formazan solution were measured at […]. The IC50 values of tested compounds were calculated by SPSS version 17.0.

MCF-7 cells [2] = assay: MTT antiproliferative assay, MCF-7 cells; assay type: cell-based, human
Protocol: as §1, §2

HCT-116 cells = assay: MTT antiproliferative assay, HCT-116 cells; assay type: cell-based, human
Protocol: as §1, §2

MGC-803 cells [3] = system: MGC-803 cells; parameters: method as in PMID 27423479, PMID 30763884, PMID 27213317; conditions: earlier work of the group; cited from earlier work
[4] = system: CyclinB1 and CDK1 in MGC-803 cells; assay: Western blotting of cell proliferation related proteins; assay type: cell-based, human; conditions: MGC-803, western blot, 24 h
Protocol: (§3) Gastric cancer cells were seeded in dishes and treated with 13e or DMSO. After 48 h, MGC-803 cells were collected and then lysed. The denatured lysates of each groups were electrophoretic separated in SDS-PAGE. Proteins were then transferred onto PVDF membranes from gels. After blocking for 2 h, membranes were incubated with primary antibodies conjugation. Then, the membranes were washed and incubated with 2nd antibodies. At last, specific proteins were detected.
(§4) Figure 5 Compound 13e inhibited cell proliferation. (A,B) The colony formation of MGC-803 cells after the treatment with indicated concentrations of compound 13e for 7 days; (C) Cell proliferation related proteins in MGC-803 cells of compound 13e after the treatment with indicated concentrations of 13e for 24 h.

MGC-803 cells [5] = assay: Cell colony formation assay; assay type: cell-based, human
Protocol: To check the effect of compound 13e on cell proliferation, cell colony formatting assay was performed. […] Beside the activity on cell apoptosis, compound 13e inhibited cell proliferation of MGC-803 cells as well.
(§5) In this work, some other assays including colony formation assay and cell apoptosis assay were referred to our previous work.
as §4

MGC-803 cells [6] = assay: Annexin V/PI flow cytometry apoptosis assay; assay type: cell-based, human; conditions: MGC-803, 6 μmol/L, 48 h; control less than 10%
Protocol: as §5
(§6) Figure 6 Compound 13e induced cell apoptosis. (A) Cell nucleus (upper panel) and morphology (lower panel) of compound 13e treated (48 h) or untreated MGC-803 cells; (B) Compound 13e induced apoptosis of MGC-803 cells. After incubated with compound 13e for 48 h, MGC-803 cells were detected by Annexin V/PI with flow cytometric analysis. The Q3 represents live cells, Q4 represents early/primary apoptotic cells, Q2 represents late/secondary apoptotic cells and Q1 represents cells necrosis. (C) The percentage of apoptosis (early and late apoptosis) cells increased dependently with various concentrations of compound 13e. Date are represented as mean ± SD of three independent experiments.

GES-1 cells = assay: MTT antiproliferative assay, non-cancer GES-1 cells; assay type: cell-based; conditions: for Fold Selectivity A: A = IC50 (GES-1)/IC50 (MGC-803); for IC50: non-cancer cell line, exposure for 48 h
Protocol: as §1, §2

[7] = system: apoptosis related proteins in MGC-803 cells; assay: Western blotting of apoptosis related proteins; assay type: cell-based, human; conditions: MGC-803, 1.5-6 μmol/L, 48 h
Protocol: as §3
Figure 7 Compound 13e regulated apoptosis related proteins. (A,B) The expression of cell apoptosis related proteins were detected by western blotting. MGC-803 cells were incubated with various concentrations compound 13e (0 μmol/L, 1.5 μmol/L, 3 μmol/L, 6 μmol/L) for 48 h. Date are represented as mean ± SD of three independent experiments.

MGC-803 cells [8] = assay: Growth curves of MGC-803 cells; assay type: cell-based, human; conditions: MGC-803, after treatment for 72 h
Protocol: Since gastric cancer cell line MGC-803 cells was more sensitive to compound 13e, MGC-803 cells were selected to do further study. The cell viabilities of MGC-803 cells after the treatment with different concentrations of compound 13e for 48 h were presented in Figure 4A, as the concentration rise, cell viability decreased obviously. […] The trends of cell growth were curved with results of cell viabilities after compound 13e treatment. […] We also tested the inhibition activity of compound 13e on normal gastric epithelial cell GES-1.
Figure 4 (A–C) MGC-803 cells inhibition activity of compound 13e […]. (A) Cell viabilities of MGC-803 cells, MGC-803 cells were treated with indicated concentrations of compound 13e for 48 h; (B) Growth curves of MGC-803 cells after the treatment with indicated concentrations of compound 13e for different hours. (C) Cell viabilities of MGC-803 cells and GES-1 cells, cells were treated with indicated concentrations of compound 13e for 48 h. The results shown were representative of three independent experiments.

MGC-803 cells [9] = assay: DAPI fluorescent staining of cell nucleus; assay type: cell-based, human; conditions: MGC-803, high dose treated group, 48 h
Protocol: Cells were seeded in 6-welled plate, then treated with different concentration of compounds for 48 h. The treated and untreated cells were washed with PBS buffer. Then fixed with 4% paraformaldehyde for 10 min in dark. After washed with PBS buffer, cells were stained by 2 μg/mL DAPI solution containing 0.1% triton X-100 for 30 min. Discard the solution and wash the cells with PBS buffer. Capture the images with a fluorescence microscope.
as §6

HepG2 cells = system: HepG2 cells; parameters: method as in PMID 23471882; conditions: cited from earlier work
K562 cell line = system: K562 cell line; parameters: method as in PMID 19837593; conditions: cited from earlier work
MCF-7 cells [10] = conditions: cited from earlier work
hCA IX = system: hCA IX; parameters: method as in PMID 29852328; conditions: cited from earlier work
PC-3 cells = system: PC-3 cells; parameters: method as in PMID 27777009; conditions: cited from earlier work
VEGFR-2/KDR kinase = target: VEGFR-2/KDR kinase; parameters: method as in PMID 27777009; conditions: cited from earlier work
[11] = Homo sapiens, MCF7, exposure for 48 h
[12] = Homo sapiens, HCT-116, exposure for 48 h

COc1cc(/C=C/C(=O)c2ccc(NC(=O)CCCl)cc2)cc(OC)c1OC [Compound 13d]
IC50 (MGC-803 cells [1]; Homo sapiens, MGC-803, 48 h): 1.64 ± 0.18 µM | IC50 (MCF-7 cells [2]; [11]): 2.12 ± 0.13 µM | IC50 (HCT-116 cells; [12]): 2.4 ± 0.26 µM | melting point: 183 to 184 °C

COc1cc(/C=C/C(=O)c2ccc(NC(=O)CSC(=S)N3CCN(CCO)CC3)cc2)cc(OC)c1OC [Compound 6]
IC50 (MGC-803 cells [3]): 1.74 µM

COc1cc(/C=C/C(=O)c2ccc(OCCCn3cc(CSc4nccs4)nn3)cc2)cc(OC)c1OC [Compound 7]
IC50 (MGC-803 cells [3]): 4.26 µM

COc1cc(/C=C/C(=O)c2ccc(NC(=O)CCCCl)cc2)cc(OC)c1OC [Compound 13e]
IC50 (MGC-803 cells [1]; Homo sapiens, MGC-803, 48 h): 1.54 µM | IC50 (MGC-803 cells [1]): 1.52 ± 0.12 µM | CDK1 protein level [4]: down-regulated | CyclinB1 protein level [4]: down-regulated | Concentration at which colonies were evidently reduced (MGC-803 cells [5]; MGC-803, 7 days treatment, compared to control): greater than 0.5 μmol/L | Colony formation of MGC-803 cells (MGC-803 cells [5]; result in words): inhibited the colony formation | Rate of apoptosis cells (early and late) (MGC-803 cells [6]): 86.7% | Fold Selectivity A (GES-1 cells): 5.4 fold | IC50 (GES-1 cells; Homo sapiens, GES1): 8.22 µM | Concentration range of selective inhibitory effect on cancer cells (GES-1 cells; MGC-803 versus GES-1, 48 h): below 2 μmol/L | Inhibition activity on GES-1 compared with MGC-803 (GES-1 cells; cell viability, 48 h, Figure 4C): lower inhibition activity on GES-1 than gastric cancer cell MGC-803 | IC50 (MCF-7 cells [2]; [11]): 2.54 ± 0.18 µM | Bcl-2 expression [7]: down regulated | Caspase3/7 [7]: cleaved (activated) | Caspase8 [7]: cleaved (activated) | Caspase12 [7]: cleaved (activated) | DR5 expression [7]: up regulated | Noxa expression [7]: up regulated | PARP [7]: cleaved | XIAP expression [7]: decreased | c-IAP1 expression [7]: decreased | t-Bid [7]: increase | Dose from which cell growth is inhibited (MGC-803 cells [8]): ≥ 0.75 µmol/L | IC50 (HCT-116 cells; [12]): 1.83 ± 0.2 µM | Cell nucleus morphology (DAPI) (MGC-803 cells [9]): concentrated and fragmented | melting point: 170 to 171 °C

(E)-4-chloro-N-(4-(3-oxo-3-(p-tolyl)prop-1-en-1-yl)phenyl)butanamide [Compound 13i]
IC50 (MGC-803 cells [1]): 16.8 ± 0.82 µM | IC50 (MCF-7 cells [2]; exposure for 48 h): 17.6 ± 0.51 µM | IC50 (HCT-116 cells; exposure for 48 h): 13.1 ± 0.61 µM

(E)-N-(4-(3-(4-bromophenyl)-3-oxoprop-1-en-1-yl) phenyl)-4-chlorobutanamide [Compound 13k]
IC50 (MGC-803 cells [1]): > 40 µM | IC50 (MCF-7 cells [2]; exposure for 48 h): > 40 µM | IC50 (HCT-116 cells; exposure for 48 h): > 40 µM

COc1ccc(/C=C/C(=O)c2ccc(OC)c3c2OC(C)(C)C=C3)cc1 [Compound 3, millepachine]
IC50 (HepG2 cells): 1.51 µM

(E)-N-(4-(3-oxo-3-(3,4,5-trimethoxyphenyl) prop-1-en-1-yl)phenyl) pentanamide [Compound 13b]
IC50 (MGC-803 cells [1]): 4.08 ± 0.24 µM | IC50 (MCF-7 cells [2]; exposure for 48 h): 3.11 ± 0.34 µM | IC50 (HCT-116 cells; exposure for 48 h): 6.72 ± 0.28 µM

O=c1[nH]cc(F)c(=O)[nH]1 [Compound 5-Fu, reference compound]
IC50 (GES-1 cells): 8.22 µM | IC50 (MCF-7 cells [2]; exposure for 48 h): 12.1 ± 1.28 µM | IC50 (HCT-116 cells; exposure for 48 h): 14.4 ± 1.73 µM

C=CC(=O)Nc1ccc(/C=C/C(=O)c2cc(OC)c(OC)c(OC)c2)cc1 [Compound 13g, (E)-N-(4-(3-oxo-3-(3,4,5-trimethoxyphenyl)prop-1-en-1-yl)phenyl) acrylamide]
IC50 (MGC-803 cells [1]; Homo sapiens, MGC-803, 48 h): 1.83 ± 0.2 µM | IC50 (MGC-803 cells [1]): 1.52 µM | Fold Selectivity A (GES-1 cells): 5.4 fold | IC50 (GES-1 cells; Homo sapiens, GES1): 8.22 µM | IC50 (MCF-7 cells [2]; [11]): 2.06 ± 0.21 µM | IC50 (HCT-116 cells; [12]): 1.12 ± 0.11 µM | melting point: 178 to 179 °C

COc1ccc(/C=C/C(=O)c2cc(OC)c(OC)c(OC)c2)cc1 [Compound 2, (E)-3-(4-methoxyphenyl)-1-(3,4,5-trimethoxyphenyl)prop-2-en-1-one]
IC50 (K562 cell line): 4.5 µM

(E)-N-(4-(3-oxo-3-(3,4,5-trimethoxyphenyl) prop-1-en-1-yl) phenyl) acetamide [Compound 13a]
IC50 (MGC-803 cells [1]): 3.81 ± 0.22 µM | IC50 (MCF-7 cells [2]; exposure for 48 h): 3.56 ± 0.17 µM

COc1ccc(/C=C/C(=O)c2ccc(NC(=O)CCCCl)cc2)cc1OC [Compound 13l]
IC50 (MGC-803 cells [1]; Homo sapiens, MGC-803, 48 h): 16.3 ± 0.65 µM | IC50 (MCF-7 cells [2]; [11]): 10.1 ± 0.73 µM | IC50 (HCT-116 cells; [12]): > 40 µM | melting point: 166 to 167 °C

O=C(CCCCl)Nc1ccc(C(=O)/C=C/c2ccc(F)cc2)cc1 [Compound 13j]
IC50 (MGC-803 cells [1]; Homo sapiens, MGC-803, 48 h): > 40 µM | IC50 (MCF-7 cells [2]; [11]): > 40 µM | IC50 (HCT-116 cells; [12]): > 40 µM | melting point: 167 to 168 °C

COc1cc(/C=C/C(=O)c2ccc(NC(=O)CCCCCl)cc2)cc(OC)c1OC [Compound 13f]
IC50 (MGC-803 cells [1]; Homo sapiens, MGC-803, 48 h): 3.01 ± 0.11 µM | IC50 (MCF-7 cells [2]; [11]): 4.45 ± 0.11 µM | IC50 (HCT-116 cells; [12]): 4.28 ± 0.32 µM | melting point: 125 to 126 °C

COc1cc(/C=C/C(=O)c2ccc(NC(=O)CCl)cc2)cc(OC)c1OC [Compound 13c]
IC50 (MGC-803 cells [1]; Homo sapiens, MGC-803, 48 h): 1.88 ± 0.22 µM | IC50 (MCF-7 cells [2]; [11]): 3.12 ± 0.01 µM | IC50 (HCT-116 cells; [12]): 2.83 ± 0.03 µM | melting point: 182 to 183 °C

O=C(/C=C/c1cn(S(=O)(=O)c2ccc(Cl)cc2Cl)c2ccccc12)c1ccncc1 [Compound 4]
IC50 (MCF-7 cells [10]): 12.2 µM | IC50 (hCA IX): 0.13 µM

O=C(CCCCl)Nc1ccc(C(=O)/C=C/c2ccccc2)cc1 [Compound 13h]
IC50 (MGC-803 cells [1]; Homo sapiens, MGC-803, 48 h): 22.1 ± 0.75 µM | IC50 (MCF-7 cells [2]; [11]): 22.2 ± 0.83 µM | IC50 (HCT-116 cells; [12]): 13.1 ± 0.51 µM | melting point: 161 to 162 °C

CNC(=O)c1cc(Oc2ccc(C(=O)/C=C/c3cc(OC)c(OC)c(OC)c3)cc2)ccn1 [Compound 5]
IC50 (PC-3 cells): 3.15 µM | IC50 (MCF-7 cells [10]): 3.88 µM | IC50 (VEGFR-2/KDR kinase): 0.72 µM
